Reference: PubChem BioAssay (NCI)
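96-well plates; 48 h exposure; 5 concentrations. Endpoints by linear interpolation between flanking doses. Not reached: highest tested concentration assigned. TGI: total growth inhibition.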

Columns and labels:
Assay in all cases: DTP human tumour cell line panel, 48 h
[1] = tested on: SW-620 colon
[2] = tested on: SR leukemia
[3] = tested on: LOX IMVI melanoma
[4] = tested on: K-562 leukemia
[5] = tested on: OVCAR-5 ovarian
[6] = tested on: MDA-N
[7] = tested on: M14 melanoma
[8] = tested on: HCT-15 colon
[9] = tested on: HT29 colon
[10] = tested on: KM12 colon
[11] = tested on: UO-31 renal
[12] = tested on: SNB-19 CNS
[13] = tested on: BT-549 breast
[14] = tested on: SF-268 CNS
[15] = tested on: PC-3 prostate
[16] = tested on: SF-295 CNS
[17] = tested on: HCC-2998 colon
[18] = tested on: COLO 205 colon
[19] = tested on: SK-OV-3 ovarian
[20] = tested on: MALME-3M melanoma

| Structure (SMILES) | TGI [1] | TGI [2] | TGI [3] | TGI [4] | TGI [5] | TGI [6] | TGI [7] | TGI [8] | TGI [9] | TGI [10] | TGI [11] | TGI [12] | TGI [13] | TGI [14] | TGI [15] | TGI [16] | TGI [17] | TGI [18] | TGI [19] | TGI [20] |
| --- | --- | --- | --- | --- | --- | --- | --- | --- | --- | --- | --- | --- | --- | --- | --- | --- | --- | --- | --- | --- |
| N#CN=C1c2ccccc2C(=NC#N)c2cc(CO)ccc21 | > 100 µM | 43 µM | > 100 µM | 80.7 µM | > 100 µM | > 100 µM | > 100 µM | > 100 µM | > 100 µM | > 100 µM | > 100 µM | > 100 µM | 95.6 µM | > 100 µM | > 100 µM | > 100 µM | – | – | – | – |
| OC12C3C4CC5C(C4[C@@H]1Br)C2[C@@](O)(c1c(F)c(F)c(F)c(F)c1F)C53 (stereo partly specified) | > 100 µM | 52.7 µM | > 100 µM | 61.5 µM | > 100 µM | > 100 µM | > 100 µM | > 100 µM | > 100 µM | 34.5 µM | 95.2 µM | > 100 µM | > 100 µM | > 100 µM | 94.4 µM | 76.8 µM | > 100 µM | > 100 µM | – | – |
| c1ccc2c(c1)nc1n2CCNC1 | > 100 µM | > 100 µM | > 100 µM | > 100 µM | > 100 µM | > 100 µM | > 100 µM | > 100 µM | > 100 µM | > 100 µM | > 100 µM | > 100 µM | > 100 µM | > 100 µM | > 100 µM | > 100 µM | > 100 µM | > 100 µM | > 100 µM | – |
| COc1ccc(-c2cc(C3CC3)nc(SCC(=O)O)c2C#N)cc1 | > 100 µM | > 100 µM | > 100 µM | > 100 µM | > 100 µM | > 100 µM | > 100 µM | > 100 µM | > 100 µM | > 100 µM | 11.1 µM | > 100 µM | > 100 µM | > 100 µM | > 100 µM | > 100 µM | > 100 µM | > 100 µM | > 100 µM | – |
| CC(=O)Nc1ccc(N2C(=O)CS(=O)(=O)C2c2cccc(Oc3ccccc3)c2)cc1 (stereo unspecified) | 80.5 µM | 48.7 µM | 35.5 µM | 55 µM | 37.2 µM | 32.5 µM | 33.9 µM | 39.5 µM | 37.7 µM | 47.2 µM | 33.8 µM | 36.2 µM | 32 µM | 41.7 µM | 42.8 µM | 36.7 µM | – | 35.7 µM | 83.1 µM | 38.8 µM |
| O=c1c(/C=C/c2c(O)ccc3ccccc23)nnc2sc(-c3cccc([N+](=O)[O-])c3)nn12 | > 100 µM | > 100 µM | > 100 µM | > 100 µM | > 100 µM | > 100 µM | 68.4 µM | > 100 µM | > 100 µM | > 100 µM | > 100 µM | – | > 100 µM | 89.8 µM | 46.5 µM | 82.6 µM | – | > 100 µM | > 100 µM | 47.3 µM |
| COc1ccccc1C1=C2C(=O)N(C)C(c3ccccc3OC)=C2C(=O)N1C | > 100 µM | – | > 100 µM | > 100 µM | > 100 µM | > 100 µM | > 100 µM | > 100 µM | > 100 µM | > 100 µM | > 100 µM | 75.4 µM | > 100 µM | > 100 µM | > 100 µM | > 100 µM | > 100 µM | > 100 µM | > 100 µM | > 100 µM |
| CC(C)(C)OC(=O)NC1CCCC1C(O)(C1=CCCC1)C1=CCCC1 (stereo unspecified) | > 100 µM | > 100 µM | > 100 µM | – | > 100 µM | > 100 µM | > 100 µM | > 100 µM | > 100 µM | > 100 µM | – | > 100 µM | > 100 µM | > 100 µM | > 100 µM | – | > 100 µM | > 100 µM | > 100 µM | – |
| Cc1ccc(C2(N3CCCC3)OC(C)(C)c3cccc4cccc2c34)cc1 (stereo unspecified) | 30.9 µM | 67.6 µM | 29.3 µM | > 100 µM | 31.4 µM | 29.9 µM | 34 µM | 32.2 µM | 26.2 µM | > 100 µM | 28.3 µM | 29.8 µM | 31.3 µM | 25.8 µM | 36.2 µM | 28 µM | – | 30.3 µM | 29.3 µM | 41.4 µM |
| O=S(=O)(O)c1ccc2c(N=Nc3ccccc3)c(O)c(S(=O)(=O)O)cc2c1 | > 100 µM | > 100 µM | – | > 100 µM | > 100 µM | > 100 µM | > 100 µM | > 100 µM | – | > 100 µM | > 100 µM | > 100 µM | > 100 µM | > 100 µM | > 100 µM | > 100 µM | > 100 µM | > 100 µM | > 100 µM | > 100 µM |
